Experimental data from patent publication US4197299A, “Anti-hypertensive derivatives of ergoline-2-thioethers and their sulphoxides” (priority 1977, dated 1980).
Where a name gives a salt, the structure may show the parent alone. Read-outs that look alike come from different tables or passages of the source.

Assays:
BaCl2 = assay: Anti BaCl2 activity (spasmolytic) (e)
Description: (e) Magnus Pflugers Arch. ges. Physiol., 102, 123,

Analgesic activity = format: in vivo; conditions: for analgesic activity (in words): in vivo; for ED100: sc
ptosis due to reserpine = assay: Antagonism to ptosis due to reserpine (antidepressive activity); format: in vivo; conditions: po
Description: Antagonism to ptosis due to reserpine (B. M.

adrenalin [1] = assay: Antiadrenalin activity in vitro (a); conditions: for adrenolytic activity (in words): as seen from the table (in vitro and in vivo); for Antiadrenalin activity in vitro EC50: in vitro (a), adrenolytic
Description: (a) J. Brugger, Helv. Physiol. Pharm. Acta 3, 117,
(c) G. Arcari & coll., Brit. J. Pharmacol. 34, 700,

adrenalin [2] = assay: Antiadrenalin activity in vivo (b)
Description: (b) F. P. Luduena et al., Arch. Int. Pharmacodyn. 122, 111,
(d) G. Arcari et Coll., Experientia 28, 819,

5HT = assay: Anti 5HT activity in vitro (f); conditions: for anti-serotininic activity (in words): as seen from the table; for Anti 5HT activity in vitro EC50: in vitro (f)
[3] = Pharmacological properties, classical tests on laboratory animals; conditions: in vivo
Description: The compounds claimed in the present invention show interesting pharmacological properties, evidenced by means of classical tests on laboratory animals at extremely low doses.

triptamine = assay: Antitriptaminic activity in vivo (g); conditions: sc, read-out: Antitriptaminic activity in vivo ED50
Description: (g) S. J. Corne et al., Brit. J. Pharmacol., 20, 106, 1963

adrenalin [4] = conditions: comparison value with reference (c) Arcari, Brit. J. Pharmacol. 34, 700; cited from earlier work
adrenalin [5] = conditions: iv, comparison value with reference (d) Arcari, Experientia 28, 819; cited from earlier work
[6] = Antiasthmatic test (Goose, Immunology 16, 749, 1969); format: in vivo
[7] = in vivo (b), iv, read-out: Antiadrenalin activity in vivo ED50

## COc1ccc(Cc2nccc3cc(OC)c(OC)cc23)cc1OC [papaverine, reference compound]
BaCl2
  Anti BaCl2 activity EC50: 8900 ng/mL

## CSc1c2c3c(cccc3n1C)[C@H]1C[C@@H](COC(=O)N3CCCC3)CN(C)[C@@H]1C2 [Compound 14, D-1,6-dimethyl-2-methylthio-8beta(pyrrolidinocarbonyloxymethyl)ergoline ma leate]
Analgesic activity
  analgesic activity (in words): potent analgesic activity
  ED100: 5 mg/kg
Ptosis due to reserpine
  ED100: 0.025 mg/kg

## CSc1[nH]c2cccc3c2c1C[C@@H]1[C@@H]3C[C@@H](COC(=O)N2CCOCC2)CN1C [Compound 11, D-6-methyl-2-methylthio-8beta(morpholinocarbonyloxymethyl)ergoline]
BaCl2
  Anti BaCl2 activity EC50: 10000 ng/mL
Adrenalin [1]
  adrenolytic activity (in words): high
  Antiadrenalin activity in vitro EC50: 1.3 ng/mL
Adrenalin [2]; [7]
  ED50: 0.0188 mg/kg
5HT
  anti-serotininic activity (in words): high
  Anti 5HT activity in vitro EC50: 0.01 ng/mL
[3]
  pharmacological properties (in words): broad spectrum of pharmacologycal properties
triptamine; in vivo (g)
  ED50: 0.05 mg/kg

## CO[C@]12C[C@@H](COC(=O)c3cncc(Br)c3)CN(C)[C@@H]1Cc1cn(C)c3cccc2c13 [nicergoline]
Adrenalin [4]
  Antiadrenalin activity in vitro EC50: 7 ng/mL
Adrenalin [5]
  Antiadrenalin activity in vivo ED50: 20 μg/kg/iv

## CSc1c2c3c(cccc3n1C)[C@H]1C[C@@H](COC(=O)N3CCCCCC3)CN(C)[C@@H]1C2 [Compound 16, D-1,6-dimethyl-2-methylthio-8beta(perhydroazepinylcarbonyloxymethyl)ergoline maleate]
Ptosis due to reserpine
  ED100: 0.1 mg/kg

## CSc1c2c3c(cccc3n1C)[C@H]1C[C@@H](COC(=O)N3CCCCC3)CN(C)[C@@H]1C2 [Compound 15, D-1,6-dimethyl-2-methylthio-8beta(piperidinocarbonyloxymethyl)ergolinemaleate]
Ptosis due to reserpine
  ED100: 0.01 mg/kg

## CSc1[nH]c2cccc3c2c1C[C@@H]1[C@@H]3C[C@@H](COC(=O)N2CCCCCC2)CN1C [Compound 10, D-6-methyl-2-methylthio-8beta(perhydroazepinylcarbonyloxymethyl)ergoline]
[6]; po, per os
  ED100: 1 mg/kg
Adrenalin [2]; route not printed there, read-out: adrenolytic ED50
  ED50: 0.02 mg/kg

## CCC(=O)O[C@](Cc1ccccc1)(c1ccccc1)[C@H](C)CN(C)C [D-propoxyphene, reference compound]
Analgesic activity
  ED100: 10 mg/kg

## CSc1c2c3c(cccc3n1C)[C@H]1C[C@@H](COC(=O)N(C)C)CN(C)[C@@H]1C2 [Compound 12, D-1,6-dimethyl-2-methylthio-8beta(dimethylaminocarbonyloxymethyl)ergoline maleate]
Analgesic activity
  analgesic activity (in words): potent analgesic activity
  ED100: 2.5 mg/kg
Ptosis due to reserpine
  ED100: 0.025 mg/kg

## CCN(CC)C(=O)OC[C@@H]1C[C@@H]2c3cccc4c3c(c(SC)n4C)C[C@H]2N(C)C1 [Compound 13, D-1.6-dimethyl-2-methylthio-8beta(diethylaminocarbonyloxymethyl)ergoline maleate]
Ptosis due to reserpine
  ED100: 0.5 mg/kg

## CN1C[C@H](CNC(=O)OCc2ccccc2)C[C@@H]2c3cccc4c3c(cn4C)C[C@H]21 [metergoline, reference compound]
triptamine
  ED50: 0.062 mg/kg

## CSc1c2c3c(cccc3n1C)[C@H]1C[C@@H](COC(=O)N3CCOCC3)CN(C)[C@@H]1C2 [Compound 17, D-1,6-dimethyl-2-methylthio-8beta(morpholinecarbonyloxymethyl)ergoline]
Ptosis due to reserpine
  ED100: 0.5 mg/kg

## O=C(O)c1cc(=O)c2c(OCC(O)COc3cccc4oc(C(=O)O)cc(=O)c34)cccc2o1 [sodium chromoglycate]
[6]; iv
  ED100: 5 mg/kg
[6]; parenteral versus oral route
  antiasthmatic activity by route: active only by the parenteral route, not by the oral route

## CN(C)CCCN1c2ccccc2CCc2ccccc21 [imipramine, reference compound]
Ptosis due to reserpine
  ED100: 25 mg/kg

## CSc1[nH]c2cccc3c2c1C[C@@H]1[C@@H]3C[C@@H](COC(=O)N2CCCCC2)CN1C [Compound 9, D-6-methyl-2-methylthio-8beta(piperidinocarbonyloxymethyl)ergoline]
BaCl2
  Anti BaCl2 activity EC50: 2200 ng/mL
Adrenalin [1]
  adrenolytic activity (in words): high
  Antiadrenalin activity in vitro EC50: 1.8 ng/mL
Adrenalin [2]; [7]
  ED50: 0.031 mg/kg
5HT
  anti-serotininic activity (in words): high
  Anti 5HT activity in vitro EC50: 1 ng/mL
[3]
  pharmacological properties (in words): broad spectrum of pharmacologycal properties
triptamine; in vivo (g)
  ED50: 10 mg/kg
